According to publication PMC9788324, “In Vitro and In Silico Pharmacological and Cosmeceutical Potential of Ten Essential Oils from Aromatic Medicinal Plants from the Mascarene Islands” (Molecules, 2022):

Experiments:
[1] = target: T1, collagenase from Clostridium histolyticum (Type IV); test: fluorescence assay, DQ gelatin-fluorescein ([…] nm); assay type: biochemical, Hathewaya histolytica; details: DQ gelatin substrate, 0.2 U/mL enzyme, 15 min preincubation at 37 °C; positive control, printed as '1,1 Phenanthroline' in table
T1 construct: gene colG; native commercial collagenase from EnzChek Gelatinase/Collagenase Assay Kit; ColG/ColH not distinguished; docking used PDB 2Y6I, not the assay protein

[2] = target: T2, porcine pancreatic elastase (Sus scrofa, UniProt P00772); test: chromogenic assay, absorbance at […] nm; assay type: biochemical; details: read-out: Elastase Inhibition / IC50 (μg/mL) (converted)
T2 construct: gene CELA1; commercial native pancreatic enzyme (Sigma-Aldrich); mature form; docking used PDB 1BRU (recalled as porcine elastase 2), not the assay protein
T2 sequence (P00772 27-266): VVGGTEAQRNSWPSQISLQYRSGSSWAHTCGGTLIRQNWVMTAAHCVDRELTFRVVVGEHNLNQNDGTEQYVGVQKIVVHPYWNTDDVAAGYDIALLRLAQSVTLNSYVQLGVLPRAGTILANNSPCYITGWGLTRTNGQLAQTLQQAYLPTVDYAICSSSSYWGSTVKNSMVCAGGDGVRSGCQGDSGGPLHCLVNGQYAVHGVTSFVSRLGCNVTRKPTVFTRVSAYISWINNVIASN

SMILES	Collagenase Inhibition / IC50 (mg/mL) [1]	IC50 [2]
c1cnc2c(c1)ccc1cccnc12 [1,10-phenanthroline]	4.20 × 10^−3 ± 0.00 mg/mL	
C[C@H]1[C@H](C)CC[C@]2(C(=O)O)CC[C@]3(C)C(=CC[C@@H]4[C@@]5(C)CC[C@H](O)C(C)(C)[C@@H]5CC[C@]43C)[C@H]12 [Ursolic acid]		22.1 µM
